Data published in patent US20090074791A1, “Phenylisoquinoline and Phenylquinazoline Derivatives” (priority 2007, published 2009).

Molecular target: T1, human PCaR (parathyroid Calcium receptor) (Homo sapiens, UniProt P41180)
T1 construct: expressed in transfected cells; host or cells: CCL39 fibroblasts (stably transfected)
T1 sequence (P41180 20-1078): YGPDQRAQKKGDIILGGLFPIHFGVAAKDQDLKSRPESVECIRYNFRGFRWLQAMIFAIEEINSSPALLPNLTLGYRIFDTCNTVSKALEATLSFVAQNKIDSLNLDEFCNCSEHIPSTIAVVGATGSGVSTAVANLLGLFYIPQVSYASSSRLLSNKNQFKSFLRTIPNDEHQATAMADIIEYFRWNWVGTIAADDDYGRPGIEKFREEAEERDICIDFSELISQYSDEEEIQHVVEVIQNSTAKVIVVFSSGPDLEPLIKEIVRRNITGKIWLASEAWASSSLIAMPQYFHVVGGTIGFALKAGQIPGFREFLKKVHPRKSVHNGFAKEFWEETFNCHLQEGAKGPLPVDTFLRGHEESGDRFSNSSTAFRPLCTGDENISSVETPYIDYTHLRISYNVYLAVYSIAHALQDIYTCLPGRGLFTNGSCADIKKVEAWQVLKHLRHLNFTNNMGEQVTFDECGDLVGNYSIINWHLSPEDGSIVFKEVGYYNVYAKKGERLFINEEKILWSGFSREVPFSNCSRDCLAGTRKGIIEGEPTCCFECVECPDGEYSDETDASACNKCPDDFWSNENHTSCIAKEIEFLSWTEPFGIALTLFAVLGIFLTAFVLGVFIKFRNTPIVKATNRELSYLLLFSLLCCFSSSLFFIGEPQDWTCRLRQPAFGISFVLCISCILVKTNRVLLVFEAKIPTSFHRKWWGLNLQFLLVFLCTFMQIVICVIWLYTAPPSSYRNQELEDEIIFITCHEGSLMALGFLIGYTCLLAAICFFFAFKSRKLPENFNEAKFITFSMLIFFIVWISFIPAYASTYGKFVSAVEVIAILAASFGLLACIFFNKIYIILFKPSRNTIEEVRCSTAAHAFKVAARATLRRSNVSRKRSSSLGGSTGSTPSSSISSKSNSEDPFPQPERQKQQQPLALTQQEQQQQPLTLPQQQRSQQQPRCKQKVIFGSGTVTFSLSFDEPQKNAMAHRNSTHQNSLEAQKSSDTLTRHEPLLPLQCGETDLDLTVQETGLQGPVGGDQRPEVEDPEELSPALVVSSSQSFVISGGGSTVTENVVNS
Test: Intracellular free calcium assay: inhibition of calcium transients stimulated by extracellular calcium (antagonism at PCaR)
Type: cell-based
Settings: CCL39 fibroblasts stably transfected with human PCaR; Fluo-3 AM; stimulated with calcium (2.5 mM final)
Description: A suitable and well validated assay to measure the anabolic effect on bone formation is the assay to detect intracellular free calcium, i.e. the method to determine antagonism at the parathyroid Calcium receptor (PCaR) consists in measuring the inhibition of intracellular calcium transients stimulated by extracellular calcium:
CCL39 fibroblasts stably transfected with human PCaR are seeded at 40'000 cells/well into 96-well Viewplates and incubated for 24 hours. Medium is then removed and replaced with fresh medium containing 2 μM Fluo-3 AM (Molecular Probes, Leiden, The Netherlands), In routine experiments, cells are incubated at 37° C., 5% CO2 for 1 h. Afterwards, plates are washed twice with mHBS and wells are refilled with 100 μl mHBS containing the test compounds. Incubation is continued at room temperature for 15 minutes. To record changes of intracellular free calcium, plates are transferred to fluorescence-imaging plate reader (Molecular Devices, Sunnyvale, Calif., USA). A baseline consisting in 5 measurements of 0.4 seconds each (laser excitation 488 nm) is recorded. Cells are then stimulated with calcium (2.5 mM final), and fluorescence changes recorded over a period of 3 minutes.

Structure (SMILES)	IC50
C#CCOc1ccc2nc(-c3nc4cc(C(=O)CCC)c(C)cc4n3C)nc(-c3ccc(C(C)C)cc3)c2c1 [Example 1, 1-{2-[4-(4-Isopropyl-phenyl)-6-prop-2-ynyloxy-quinazolin-2-yl]-1,6-dimethyl-1H-benzoimidazol-5-yl}-butan-1-one]	260 pM
C#CCOc1ccc2nc(-c3nc4ccc(C#N)cc4[nH]3)nc(-c3ccc(C(C)C)cc3)c2c1 [Example 3, 2-[4-(4-Isopropyl-phenyl)-6-prop-2-ynyloxy-quinazolin-2-yl]-3H-benzoimidazole-5-carbonitrile]	930 pM
C#CCOc1ccc2nc(-c3nc4cc(F)ccc4n3C)nc(-c3ccc(C(C)C)cc3)c2c1 [Example 5, 2-(5-Fluoro-1-methyl-1H-benzoimidazol-2-yl)-4-(4-isopropyl-phenyl)-6-prop-2-ynyloxy-quinazoline]	1100 pM
C#CCOc1ccc2nc(-c3nc4cc(OC)ccc4n3C)nc(-c3ccc(C(C)C)cc3)c2c1 [Example 6, 4-(4-Isopropyl-phenyl)-2-(5-methoxy-1-methyl-1H-benzoimidazol-2-yl)-6-prop-2-ynyloxy-quinazoline]	700 pM
C#CCOc1ccc2nc(-c3nc4ccccc4n3C)nc(-c3ccc(C(C)C)cc3)c2c1 [Example 8, 4-(4-Isopropyl-phenyl)-2-(1-methyl-1H-benzoimidazol-2-yl)-6-prop-2-ynyloxy-quinazoline]	1500 pM
C#CCOc1ccc2nc(-c3nc4ccc(C(F)(F)F)cc4[nH]3)nc(-c3ccc(C(C)C)cc3)c2c1 [Example 14, 4-(4-Isopropyl-phenyl)-6-prop-2-ynyloxy-2-(6-trifluoromethyl-1H-benzoimidazol-2-yl)-quinazoline]	950 pM
C#CCOc1ccc2nc(-c3nc4ccc(OC)cc4[nH]3)nc(-c3ccc(C(C)C)cc3)c2c1 [Example 15, 4-(4-Isopropyl-phenyl)-2-(6-methoxy-1H-benzoimidazol-2-yl)-6-prop-2-ynyloxy-quinazoline]	960 pM
C#CCOc1ccc2nc(-c3nc4ccc(Cl)cc4[nH]3)nc(-c3ccc(C(C)C)cc3)c2c1 [Example 16, 2-(6-Chloro-1H-benzoimidazol-2-yl)-4-(4-isopropyl-phenyl)-6-prop-2-ynyloxy-quinazoline]	530 pM
C#CCOc1ccc2nc(-c3nc4ccc(C(=O)OCC)cc4[nH]3)nc(-c3ccc(C(C)C)cc3)c2c1 [Example 17, 2-[4-(4-Isopropyl-phenyl)-6-prop-2-ynyloxy-quinazolin-2-yl]-3H-benzoimidazole-5-carboxylic acid ethyl ester]	740 pM
C#CCOc1ccc2nc(-c3nc4ccc(C(=O)c5ccccc5)cc4[nH]3)nc(-c3ccc(C(C)C)cc3)c2c1 [Example 18, {2-[4-(4-isopropyl-phenyl)-6-prop-2-ynyloxy-quinazolin-2-yl]-3H-benzoimidazol-5-yl}phenyl-methanone]	680 pM
C#CCOc1ccc2nc(-c3nc4ccc(Br)cc4[nH]3)nc(-c3ccc(C(C)C)cc3)c2c1 [Example 19, 2-(6-Bromo-1H-benzoimidazol-2-yl)-4-(4-isopropyl-phenyl)-6-prop-2-ynyloxy-quinazoline]	880 pM
C#CCOc1ccc2nc(-c3nc4ccc(F)cc4[nH]3)nc(-c3ccc(C(C)C)cc3)c2c1 [Example 20, 2-(6-Fluoro-1H-benzoimidazol-2-yl)-4-(4-isopropyl-phenyl)-6-prop-2-ynyloxy-quinazoline]	1600 pM
C#CCOc1ccc2nc(-c3nc4cc(F)c(Cl)cc4[nH]3)nc(-c3ccc(C(C)C)cc3)c2c1 [Example 21, 2-(6-Chloro-5-fluoro-1H-benzoimidazol-2-yl)-4-(4-isopropyl-phenyl)-6-prop-2-ynyloxy-quinazoline]	1400 pM
C#CCOc1ccc2nc(-c3nc4cc(C(F)(F)F)ccc4n3C)nc(-c3ccc(C(C)C)cc3)c2c1 [Example 22, 4-(4-Isopropyl-phenyl)-2-(1-methyl-5-trifluoromethyl-1H-benzoimidazol-2-yl)-6-prop-2-ynyloxy-quinazoline]	630 pM
C#CCOc1ccc2nc(-c3nc4cc(C(=O)OCC)ccc4n3C)nc(-c3ccc(C(C)C)cc3)c2c1 [Example 23, 2-[4-(4-Isopropyl-phenyl)-6-prop-2-ynyloxy-quinazolin-2-yl]-1-methyl-1H-benzoimidazole-5-carboxylic acid ethyl ester]	400 pM
C#CCOc1ccc2nc(-c3nc4cc(C(C)=O)ccc4n3C)nc(-c3ccc(C(C)C)cc3)c2c1 [Example 24, 1-{2-[4-(4-Isopropyl-phenyl)-6-prop-2-ynyloxy-quinazolin-2-yl]-1-methyl-1H-benzoimidazol-5-yl}ethanone]	1000 pM
C#CCOc1ccc2nc(-c3nc4cc(F)c(F)cc4[nH]3)nc(-c3ccc(C(C)C)cc3)c2c1 [Example 25, 2-(5,6-Difluoro-1H-benzoimidazol-2-yl)-4-(4-isopropyl-phenyl)-6-prop-2-ynyloxy-quinazoline]	440 pM
C#CCOc1ccc2nc(-c3nc4cccc(C(C)=O)c4[nH]3)nc(-c3ccc(C(C)C)cc3)c2c1 [Example 26, 1-{2-[4-(4-Isopropyl-phenyl)-6-prop-2-ynyloxy-quinazolin-2-yl]-3H-benzoimidazol-4-yl}-ethanone]	590 pM
C#CCOc1ccc2nc(-c3nc4ccc(C(=O)OCC)cc4n3C)nc(-c3ccc(C(C)C)cc3)c2c1 [Example 36, 2-[4-(4-Isopropyl-phenyl)-6-prop-2-ynyloxy-quinazolin-2-yl]-3-methyl-3H-benzoimidazole-5-carboxylic acid ethyl ester]	650 pM
